Measured values from US20040259936A1, “Treatment of neoplasia” (priority 2001, published 2004).

Columns and labels:
EL-4 tumor cells [1] = assay: Cannabinoid-induced apoptosis in vitro (TUNEL or annexin V/PI); assay type: cell-based, murine; details: for induction of apoptosis (annexin/PI) compared with controls: 3 μM
Procedure: (§1) The cells were washed twice with PBS. […] Five thousand cells were analyzed per sample.

[2] = cited from earlier work
Jurkat [3] = assay: Cannabinoid-induced apoptosis in vitro (TUNEL); assay type: cell-based, human; details: 5 μM JWH-015, serum-free medium, 24 hours
Procedure: as §1

Molt-4 [4] = assay: Cannabinoid-induced apoptosis in vitro (TUNEL); assay type: cell-based, human; set-up: induction of apoptosis (TUNEL): dose or concentration left out as unconfirmed
Procedure: as §1

Molt-4 [5] = assay: Tumor-cell viability in vitro, trypan blue dye exclusion; assay type: cell-based, human; details: Molt-4, serum-free medium, 24 hours
Procedure: (§2) Measurement of the effect of cannabinoid receptor aponistson tumor-cell viability in vitro: Tumor cells were adjusted to 1×10^6 cells/mL in medium containing 5% FCS or serum-free medium. The cells (1×10^6) were cultured in 24-well plates in 2 mL medium in the presence or absence of various concentrations of cannabinoid receptor agonists for 2 to 24 hours. Finally, the cells were harvested and washed twice in PBS, and the viable cell count was determined by trypan blue dye exclusion.

Jurkat [6] = assay: as above; assay type: cell-based, human
Procedure: as §2

tumor cells = assay: Dose of THC that induced apoptosis in vitro, with and without serum; assay type: cell-based
Procedure: as §1

primary ALL cells = assay: Viability of primary ALL cells in vitro, trypan blue dye exclusion; assay type: cell-based, human; details: ALL no. 1 and ALL no. 2, serum-free medium, 2 hours
Excerpt: Primary leukemic cells: Peripheral blood samples were obtained from 2 patients diagnosed with ALL. The samples were referred to as ALL no. 1 and ALL no. 2. ALL no. 1 was obtained from a patient newly diagnosed with common acute lymphoblastic leukemia antigen (CALLA) (CD10)-positive non-B, non-T ALL. ALL no. 2 was obtained from a patient newly diagnosed with terminal deoxynucleotidyl transferase (TdT)-positive T-cell ALL. Informed consent was obtained following institutional guidelines and approval was obtained from the institutional review board of Virginia Commonwealth University. Consent was provided according to the Declaration of Helsinki.
The content of the lymphoblasts was greater than 70% as determined by flow cytometric analysis. Mononuclear cells were isolated by Ficoll-Paque density gradient centrifugation. In this study, the samples were cryopreserved and stored in liquid nitrogen before use. Viability after thawing was determined by trypan blue dye exclusion and was greater than 90%.
Measurement of the effect of cannabinoid receptor aponistson tumor-cell viability in vitro: Tumor cells were adjusted to 1×10^6 cells/mL in medium containing 5% FCS or serum-free medium. […] Finally, the cells were harvested and washed twice in PBS, and the viable cell count was determined by trypan blue dye exclusion.

EL-4 tumor cells [7] = assay: Survival of EL-4-challenged mice; assay type: in vivo, C57BL/6 mice; details: 5 mg/kg IP daily for 14 days
Procedure: Effect of THC on survival of EL-4-challenged mice: Groups of 8 C57BL/6 mice were injected […] with 1×10^6 EL-4 tumor cells in a volume of 100 μL PBS. One day following tumor injection, the mice received daily IP injections for 14 days with 5 mg/kg THC in a volume of 500 μL PBS. Control mice received injections with the vehicle control. The mice were observed daily for signs of morbidity and were euthanized. Mice that survived for more than 60 days were rechallenged with live EL-4 cells (1×10^6) and tested for their ability to reject tumor and survive.

thymus and spleen = assay: Cellularity of thymus and spleen after administration to C57BL/6 mice; details: resulted from apoptosis in immune cells
EL-4 tumor cells [8] = assay: Tumor-cell viability and induction of apoptosis in vivo in EL-4 tumor-bearing mice; set-up: species or system C57BL/6 mice
Procedure: Measurement of tumor-cell viability and induction of apoptosis in vivo: Groups of 5 C57BL/6 mice were injected intraperitoneally (IP) with 1×10^6 EL-4 tumor cells suspended in 0.2 mL PBS. The control mice received PBS alone. Ten days later, the mice were injected with various concentrations of THC (0, 1, 3, or 5 mg/kg […]). The mice were killed 24 hours later and the EL-4 tumor cells were harvested from the peritoneal cavity by injecting 5.0 mL PBS, followed by aspiration of the peritoneal fluid from the cavity. The contaminating red blood cells were removed with red blood lysing solution (Sigma), and the tumor cells were washed twice with PBS. The number of viable cells was determined by trypan blue dye exclusion, and apoptosis was determined using the TUNEL assay. The presence of tumor cells in the peritoneal cavity was confirmed by the ability of the cells to grow in vitro and by the phenotype (Thyl-, CD4-, CD8-).

EL-4 tumor cells [9] = assay: Tumor-cell viability in vitro, trypan blue dye exclusion; assay type: cell-based, murine; set-up: time required to induce tumor-cell killing: dose or concentration left out as unconfirmed
Procedure: as §2

[10] = rats injected with 50 mg/kg, within 10 hours of administration; cited from earlier work
P815 tumor cells [11] = assay: Cannabinoid-induced apoptosis in vitro (TUNEL); assay type: cell-based, murine; details: P815, 5% FCS, 24 hours, 20 μM THC (printed 201M)
Procedure: as §1

LSA tumor cells [12] = assay: Cannabinoid-induced apoptosis in vitro (TUNEL); assay type: cell-based, murine; details: 5% FCS, 24 hours, 20 μM THC (printed 201M)
Procedure: as §1

Sup-T1 = assay: Tumor-cell viability in vitro, trypan blue dye exclusion; assay type: cell-based, human; details: Sup-T1, 5 μM THC, 4 hours
Procedure: as §2

P815 tumor cells [13] = assay: as above; assay type: cell-based, murine; details: P815, medium with 5% FCS, 24 hours
Procedure: as §2

LSA tumor cells [14] = assay: as above; assay type: cell-based, murine; details: medium with 5% FCS, 24 hours
Procedure: as §2

CB2 receptors = CB2 receptors (Homo sapiens, UniProt P34972); details: human tumor cells, pretreatment with the CB2 antagonist
Procedure: Next, the cells were harvested, washed twice in PBS, and analyzed for the induction of apoptosis using either the terminal deoxynucleotidyl transferase-mediated end labeling (TUNEL) method or annexin V/propidium iodide (PI) method, as described elsewhere (references 14,15 incorporated herein by reference). To detect apoptosis using the TUNEL method, we washed the cells twice with PBS and fixed them with 4% p-formaldehyde for 30 minutes at room temperature. The cells were next washed with PBS, permeabilized on ice for 2 minutes, and incubated with fluorescein isothiocyanate-dUTP and TdT (Boehringer Mannheim, Indianapolis, Ind.) for 1 hour at 37° C. and 5% CO2. To detect apoptosis using the annexin V/PI method, we washed the cells twice with PBS and stained them with annexin V and PI for 20 minutes at room temperature. The cells were washed twice with PBS. The levels of apoptosis in both the TUNEL and annexin/PI assays were determined by measuring the fluorescence of the cells by flow cytometric analysis. Five thousand cells were analyzed per sample.

[15] = EL-4, serum-free medium, 4 hours
[16] = 5 mg/kg IP on day 10, harvest 24 hours later
[17] = EL-4, serum-free medium, 5 μM, 4 hours

CB2 receptors, sequence (P34972 whole entry): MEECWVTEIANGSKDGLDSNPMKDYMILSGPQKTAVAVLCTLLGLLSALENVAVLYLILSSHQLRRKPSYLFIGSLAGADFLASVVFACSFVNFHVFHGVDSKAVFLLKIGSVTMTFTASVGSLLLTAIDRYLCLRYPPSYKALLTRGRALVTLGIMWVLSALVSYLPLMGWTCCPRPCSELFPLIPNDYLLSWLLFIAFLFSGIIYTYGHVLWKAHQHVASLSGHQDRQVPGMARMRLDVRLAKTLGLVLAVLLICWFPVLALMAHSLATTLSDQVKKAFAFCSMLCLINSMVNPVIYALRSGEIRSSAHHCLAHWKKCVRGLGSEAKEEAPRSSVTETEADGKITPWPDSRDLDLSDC

CCCCCCC(C)(C)c1cc(O)c2c(c1)OC(C)(C)[C@@H]1CC=C(CO)C[C@@H]21 [HU-210]
induction of apoptosis (annexin/PI) compared with controls (EL-4 tumor cells [1]; [15]): significant increase in apoptosis

CCCn1c(C)c(C(=O)c2cccc3ccccc23)c2ccccc21 [JWH-015, (2-Methyl-1-propyl-1H-indol-3-yl)-1-naphthalenylmethanone]
soluble to, in DMSO ([2]; DMSO): 10 mM
soluble to, in ethanol ([2]; ethanol): 25 mM
induction of apoptosis (TUNEL) (Jurkat [3]): significant induction of apoptosis
induction of apoptosis (TUNEL) (Molt-4 [4]; Molt-4, JWH-015, serum-free medium, 24 hours): significant induction of apoptosis
concentration leading to a significant decrease in the number of viable tumor cells (Molt-4 [5]): ≥ 5 µM
concentration leading to a significant decrease in the number of viable tumor cells (Jurkat [6]; serum-free medium, 24 hours): ≥ 5 µM

CCCCCc1cc(O)c2c(c1)OC(C)(C)[C@@H]1CCC(C)=C[C@@H]21 [THC, Delta-9-tetrahydrocannabinol]
dose that induced apoptosis in vitro (tumor cells; serum-containing medium): ≥ 10 µM
dose that induced apoptosis in vitro (tumor cells; serum-free medium): ≥ 3 µM
concentration resulting in significant reduction in viability (primary ALL cells): ≥ 5 µM
survival of EL-4 tumor-bearing mice (EL-4 tumor cells [7]): significant increase in survival
mice that survived the tumor challenge / were cured (EL-4 tumor cells [7]; listed as TEC): approximately 25%
cellularity of the thymus and spleen (thymus and spleen): marked decrease in the cellularity of the thymus and spleen
viable tumor-cell number in the peritoneal cavity (EL-4 tumor cells [8]; 1 mg/kg IP on day 10, harvest 24 hours later): failed to cause a decrease in cellularity
viable tumor-cell number in the peritoneal cavity (EL-4 tumor cells [8]; 3 mg/kg IP on day 10, harvest 24 hours later): effective
proportion of tumor cells showing apoptosis (TUNEL) (EL-4 tumor cells [8]; [16]): 77.3%
viable tumor-cell number in the peritoneal cavity (EL-4 tumor cells [8]; [16]): effective
concentration leading to a significant reduction in the number of viable cells (EL-4 tumor cells [9]; EL-4, medium with 5% FCS, 24 hours): ≥ 10 µM
time required to induce tumor-cell killing (EL-4 tumor cells [9]; EL-4, serum-free medium): 4 h
concentration leading to a significant decrease in tumor-cell viability (EL-4 tumor cells [9]; [15]): 5 µM
concentration causing a significant decrease in tumor-cell viability (EL-4 tumor cells [9]; EL-4, serum-free medium, 12 hours): 3 µM
THC in the serum [10]: 10 µM
induction of apoptosis (TUNEL) (P815 tumor cells [11]): induced significant apoptosis
induction of apoptosis (TUNEL) (LSA tumor cells [12]): induced significant apoptosis
induction of apoptosis (TUNEL) (EL-4 tumor cells [1]; EL-4, 5% FCS, 24 hours, 20 μM THC (printed 201M)): induced significant apoptosis
induction of apoptosis (annexin/PI) compared with controls (EL-4 tumor cells [1]; [15]): significant increase in apoptosis
induction of apoptosis (TUNEL and annexin/PI) (EL-4 tumor cells [1]; [17]): increase in the induction of apoptosis
number of viable tumor cells (Sup-T1): dramatic reduction in the number of viable tumor cells
number of viable tumor cells (Jurkat [6]; 5 μM THC, 4 hours): dramatic reduction in the number of viable tumor cells
concentration leading to a significant reduction in the number of viable cells (P815 tumor cells [13]): ≥ 10 µM
concentration leading to a significant reduction in the number of viable cells (LSA tumor cells [14]): ≥ 10 µM

Cc1c(C(=O)c2cccc3ccccc23)c2cccc3c2n1[C@H](CN1CCOCC1)CO3 [WIN55212]
induction of apoptosis (annexin/PI) compared with controls (EL-4 tumor cells [1]; [15]): no significant effect

CCCCC/C=C\C/C=C\C/C=C\C/C=C\CCCC(=O)NCCO [anandamide]
induction of apoptosis (TUNEL) (EL-4 tumor cells [1]; [17]): slight increase in apoptosis
induction of apoptosis (TUNEL) (EL-4 tumor cells [1]; EL-4, serum-free medium, 10 μM, 4 hours): significant levels of apoptosis
concentration leading to significant levels of apoptosis (TUNEL) (Molt-4 [4]; Molt-4, serum-free medium, 4 hours): ≥ 20 µM

SR144528
effect of pretreatment on THC-induced apoptosis (CB2 receptors): partially reversed
